According to EP4603105A1, “PHARMACEUTICAL COMPOSITION CONTAINING CYCLIC COMPOUND HAVING SELECTIVE KRAS INHIBITORY EFFECT AGAINST HRAS AND NRAS” (CHUGAI SEIYAKU KABUSHIKI KAISHA, priority 2022, dated 2024):

Assays:
[1] = molecular target: GDP-bound NRAS wild-type protein (Homo sapiens, UniProt P01111); experiment: Binding to NRAS by surface plasmon resonance (SPR), KD and KD ratio to KRAS; settings: ratio of KD for GDP-bound NRAS wild-type protein to KD for KRAS
Method in brief: (§1)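 GDP-loaded biotinylated Avi-tag RAS proteins (E. coli-expressed) captured on a Biotin CAPture chip at ~100–300 RU; single-cycle kinetics at 30°C, 100 µL/min, 75 s injections of rising compound concentrations. HBS pH 7.4 running buffer with 1 mM DTT, 10 mM MgCl2, 10 µM GDP, 4% DMSO. KD from 1:1 binding fit.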

HRAS wild-type protein = HRAS wild-type protein (Homo sapiens, UniProt P01112); experiment: Binding to HRAS by surface plasmon resonance (SPR), KD and KD ratio to KRAS; settings: ratio of KD for HRAS wild-type protein to KD for KRAS
HRAS wild-type protein, sequence (P01112 whole entry): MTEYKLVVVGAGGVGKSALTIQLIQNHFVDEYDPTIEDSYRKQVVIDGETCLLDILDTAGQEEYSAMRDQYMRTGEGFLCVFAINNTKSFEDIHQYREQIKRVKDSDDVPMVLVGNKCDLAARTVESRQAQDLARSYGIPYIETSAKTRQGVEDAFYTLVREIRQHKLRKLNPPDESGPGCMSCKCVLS
Method in brief: as §1

[2] = tested on: human lung cancer strain NCI-H441; type: cell-based
Method in brief: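 Readout: […] after the ATP-based reagent. Compound: serial dilutions in dimethyl sulfoxide.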

GDP-bound NRAS wild-type protein, sequence (P01111 whole entry): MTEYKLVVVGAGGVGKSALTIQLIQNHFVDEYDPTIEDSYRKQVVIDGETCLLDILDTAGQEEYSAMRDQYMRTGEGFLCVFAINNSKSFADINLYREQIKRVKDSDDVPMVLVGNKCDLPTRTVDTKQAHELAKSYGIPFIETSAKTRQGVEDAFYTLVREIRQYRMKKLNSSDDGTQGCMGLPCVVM

| SMILES | IC50 [2] [nM] | NRAS /KRAS [1] | HRAS /KRAS (HRAS wild-type protein) |
| --- | --- | --- | --- |
| CC[C@H](C)[C@@H]1NC(=O)[C@H](CC(C)C)N(C)C(=O)C[C@@H](C(=O)N2CCOCC2)N(C)C(=O)[C@H](C2CCCC2)N(C)C(=O)C2(CCC2)NC(=O)[C@@H]2C[C@@H](O)CN2C(=O)[C@H](CCc2cc(F)c(C(F)(F)F)c(F)c2)NC(=O)CN(C)C(=O)[C@H](Cc2ccc(C(F)(F)F)cc2)N2CCCC[C@@H](C2=O)N(C)C(=O)CN(C)C1=O [PP0868] | 70.8 | C (A compound having a KD ratio of 0.1 or more and less than 3 is denoted as C) | B (a compound having 3 or more and less than 10 is denoted as B) |
| CC[C@H](C)[C@@H]1NC(=O)[C@H](CC(C)C)N(C)C(=O)C[C@@H](C(=O)N2CCOCC2)N(C)C(=O)[C@H](C2CCCC2)N(C)C(=O)C2(CCC2)NC(=O)[C@@H]2[C@@H](O)CCN2C(=O)[C@H](CCc2cc(F)c(C(F)(F)F)c(F)c2)NC(=O)CN(C)C(=O)[C@H](Cc2ccc(C(F)(F)F)cc2)N2CCCC[C@@H](C2=O)N(C)C(=O)CN(C)C1=O [PP0869] | 134 | B (a compound having 3 or more and less than 10 is denoted as B) | B (a compound having 3 or more and less than 10 is denoted as B) |
| CC[C@H](C)[C@@H]1NC(=O)[C@H](CC(C)C)N(C)C(=O)C[C@@H](C(=O)N2CCOCC2)N(C)C(=O)[C@H](C2CCCC2)N(C)C(=O)C2(CCC2)NC(=O)[C@@H]2[C@H](O)CCN2C(=O)[C@H](CCc2cc(F)c(C(F)(F)F)c(F)c2)NC(=O)CN(C)C(=O)[C@H](Cc2ccc(C(F)(F)F)cc2)N2CCCC[C@@H](C2=O)N(C)C(=O)CN(C)C1=O [PP0870] | 79.7 | B (a compound having 3 or more and less than 10 is denoted as B) | B (a compound having 3 or more and less than 10 is denoted as B) |
| C=CC[C@H]1C(=O)N[C@@H]([C@@H](C)CC)C(=O)N(C)CC(=O)N(C)[C@H]2CCCCN(C2=O)[C@@H](Cc2ccc(C(F)(F)F)cc2)C(=O)N(C)CC(=O)N[C@@H](CCc2cc(F)c(C(F)(F)F)c(F)c2)C(=O)N2C[C@H](OCC)C[C@H]2C(=O)N[C@](C)(CC=C)C(=O)N(C)[C@@H](C2CCCC2)C(=O)N(C)[C@H](C(=O)N2CCOCC2)CC(=O)N1C [PP0874] | 4.9 | C (A compound having a KD ratio of 0.1 or more and less than 3 is denoted as C) | B (a compound having 3 or more and less than 10 is denoted as B) |
| C=CCC[C@H]1C(=O)N[C@@H]([C@@H](C)CC)C(=O)N(C)CC(=O)N(C)[C@H]2CCCCN(C2=O)[C@@H](Cc2ccc(C(F)(F)F)cc2)C(=O)N(C)CC(=O)N[C@@H](CCc2cc(F)c(C(F)(F)F)c(F)c2)C(=O)N2C[C@H](OCC)C[C@H]2C(=O)N[C@](C)(CC=C)C(=O)N(C)[C@@H](C2CCCC2)C(=O)N(C)[C@H](C(=O)N2CCOCC2)CC(=O)N1C [PP0875] | 4.8 | C (A compound having a KD ratio of 0.1 or more and less than 3 is denoted as C) | B (a compound having 3 or more and less than 10 is denoted as B) |
| C=CCCC[C@H]1C(=O)N[C@@H]([C@@H](C)CC)C(=O)N(C)CC(=O)N(C)[C@H]2CCCCN(C2=O)[C@@H](Cc2ccc(C(F)(F)F)cc2)C(=O)N(C)CC(=O)N[C@@H](CCc2cc(F)c(C(F)(F)F)c(F)c2)C(=O)N2C[C@H](OCC)C[C@H]2C(=O)N[C@](C)(CC=C)C(=O)N(C)[C@@H](C2CCCC2)C(=O)N(C)[C@H](C(=O)N2CCOCC2)CC(=O)N1C [PP0876] | 7.1 | C (A compound having a KD ratio of 0.1 or more and less than 3 is denoted as C) | C (A compound having a KD ratio of 0.1 or more and less than 3 is denoted as C) |
| C=CCCCC[C@H]1C(=O)N[C@@H]([C@@H](C)CC)C(=O)N(C)CC(=O)N(C)[C@H]2CCCCN(C2=O)[C@@H](Cc2ccc(C(F)(F)F)cc2)C(=O)N(C)CC(=O)N[C@@H](CCc2cc(F)c(C(F)(F)F)c(F)c2)C(=O)N2C[C@H](OCC)C[C@H]2C(=O)N[C@](C)(CC=C)C(=O)N(C)[C@@H](C2CCCC2)C(=O)N(C)[C@H](C(=O)N2CCOCC2)CC(=O)N1C [PP0877] | 18.8 | C (A compound having a KD ratio of 0.1 or more and less than 3 is denoted as C) | B (a compound having 3 or more and less than 10 is denoted as B) |
| C=CC[C@H]1C(=O)N[C@@H]([C@@H](C)CC)C(=O)N(C)CC(=O)N(C)[C@H]2CCCCCN(C2=O)[C@@H](Cc2ccc(C(F)(F)F)cc2)C(=O)N(C)CC(=O)N[C@@H](CCc2cc(F)c(C(F)(F)F)c(F)c2)C(=O)N2C[C@H](OCC)C[C@H]2C(=O)N[C@](C)(CC=C)C(=O)N(C)[C@@H](C2CCCC2)C(=O)N(C)[C@H](C(=O)N2CCOCC2)CC(=O)N1C [PP0878] | 85.9 | B (a compound having 3 or more and less than 10 is denoted as B) | B (a compound having 3 or more and less than 10 is denoted as B) |
| CCO[C@@H]1C[C@H]2C(=O)NC3(CCC3)C(=O)N(C)[C@@H](C3CCCC3)C(=O)N(C)[C@H](C(=O)N(C)C)CC(=O)N(C)[C@@H](CC)C(=O)N[C@@H]([C@@H](C)CC)C(=O)N(C)CC(=O)N(C)[C@H]3CCCCCN(C3=O)[C@@H](Cc3ccc(C(F)(F)F)cc3)C(=O)N(C)CC(=O)N[C@@H](CCc3c(F)c(F)c(C(F)(F)F)c(F)c3F)C(=O)N2C1 [PP0891] | 154 | B (a compound having 3 or more and less than 10 is denoted as B) | B (a compound having 3 or more and less than 10 is denoted as B) |
| CCCN1C(=O)CN(C)C(=O)CN(C)C(=O)[C@H]([C@@H](C)CC)NC(=O)[C@@H]2CCCCOc3ccc(cc3)C[C@H]1C(=O)N(C)CC(=O)N[C@@H](CCc1cc(F)c(C(F)(F)F)c(F)c1)C(=O)N1C[C@H](OCC)C[C@H]1C(=O)NC1(CCCC1)C(=O)N(C)[C@@H](C1CCCC1)C(=O)N(C)[C@H](C(=O)N(C)C)CC(=O)N2C [PP0894] | 3.7 | C (A compound having a KD ratio of 0.1 or more and less than 3 is denoted as C) | C (A compound having a KD ratio of 0.1 or more and less than 3 is denoted as C) |

More lines, main results first:

| IC50 [2] [nM] | SMILES | NRAS /KRAS [1] | HRAS /KRAS (HRAS wild-type protein) |
| --- | --- | --- | --- |
| 7.1 | CCO[C@@H]1C[C@H]2C(=O)NC3(CCC3)C(=O)N(C)[C@@H](C3CCCC3)C(=O)N(C)[C@H](C(=O)N(C)C)CC(=O)N(C)[C@@H](CC)C(=O)N[C@@H]([C@@H](C)CC)C(=O)N(C)CC(=O)N(C)[C@H]3CCCCN(C3=O)[C@@H](Cc3ccc(C(F)(F)F)cc3)C(=O)N(C)CC(=O)N[C@@H](CCc3ccc(C(F)(F)F)c(C)c3)C(=O)N2C1 [PP0882] | C (A compound having a KD ratio of 0.1 or more and less than 3 is denoted as C) | B (a compound having 3 or more and less than 10 is denoted as B) |
| 6.2 | CCO[C@@H]1C[C@H]2C(=O)NC3(CCC3)C(=O)N(C)[C@@H](C3CCCC3)C(=O)N(C)[C@H](C(=O)N(C)C)CC(=O)N(C)[C@@H](CC)C(=O)N[C@@H]([C@@H](C)CC)C(=O)N(C)CC(=O)N(C)[C@H]3CCCCN(C3=O)[C@@H](Cc3ccc(C(F)(F)F)cc3)C(=O)N(C)CC(=O)N[C@@H](CCc3ccc(C(F)(F)F)c(OC)c3)C(=O)N2C1 [PP0884] | C (A compound having a KD ratio of 0.1 or more and less than 3 is denoted as C) | C (A compound having a KD ratio of 0.1 or more and less than 3 is denoted as C) |
| 11.5 | CCO[C@@H]1C[C@H]2C(=O)NC3(CCC3)C(=O)N(C)[C@@H](C3CCCC3)C(=O)N(C)[C@H](C(=O)N(C)C)CC(=O)N(C)[C@@H](CC)C(=O)N[C@@H]([C@@H](C)CC)C(=O)N(C)CC(=O)N(C)[C@H]3CCCCN(C3=O)[C@@H](Cc3ccc(C(F)(F)F)cc3)C(=O)N(C)CC(=O)N[C@@H](CCc3ccc(C(F)(F)F)cc3F)C(=O)N2C1 [PP0885] | C (A compound having a KD ratio of 0.1 or more and less than 3 is denoted as C) | B (a compound having 3 or more and less than 10 is denoted as B) |
| 14.3 | CCO[C@@H]1C[C@H]2C(=O)NC3(CCC3)C(=O)N(C)[C@@H](C3CCCC3)C(=O)N(C)[C@H](C(=O)N(C)C)CC(=O)N(C)[C@@H](CC)C(=O)N[C@@H]([C@@H](C)CC)C(=O)N(C)CC(=O)N(C)[C@H]3CCCCN(C3=O)[C@@H](Cc3ccc(C(F)(F)F)cc3)C(=O)N(C)CC(=O)N[C@@H](CCc3c(F)c(F)c(C(F)(F)F)c(F)c3F)C(=O)N2C1 [PP0886] | C (A compound having a KD ratio of 0.1 or more and less than 3 is denoted as C) | B (a compound having 3 or more and less than 10 is denoted as B) |
| 19 | CCO[C@@H]1C[C@H]2C(=O)NC3(CCC3)C(=O)N(C)[C@@H](C3CCCC3)C(=O)N(C)[C@H](C(=O)N(C)C)CC(=O)N(C)[C@@H](CC)C(=O)N[C@@H]([C@@H](C)CC)C(=O)N(C)CC(=O)N(C)[C@H]3CCCCN(C3=O)[C@@H](Cc3ccc(C(F)(F)F)cc3)C(=O)N(C)CC(=O)N[C@@H](CCc3ccc4sccc4c3)C(=O)N2C1 [PP0887] | C (A compound having a KD ratio of 0.1 or more and less than 3 is denoted as C) | C (A compound having a KD ratio of 0.1 or more and less than 3 is denoted as C) |
